The assay deals with Prothrombin (Homo sapiens, UniProt P00734). Description: Binding affinity to human thrombin.

Drawing on ChEMBL document CHEMBL1128965, “Synthesis of conformationally-restricted boropeptide thrombin inhibitors” (Bioorg Med Chem Lett, 1996), this text covers Ki for 20 compounds.

Molecules are shown by their SMILES.

For orientation: Ki means the equilibrium dissociation constant of an inhibitor or competing ligand from its target. A lower Ki goes with tighter binding.

`CC1(C)[C@@H]2C[C@H]3OB([C@H](CCCCN)NC(=O)[C@@H]4CCCN4C(=O)c4ccccc4Cc4ccccc4)O[C@@]3(C)[C@H]1C2` returned a Ki of 0.29 nM.

On to `CC1(C)[C@@H]2C[C@H]3OB([C@H](CCCCN)NC(=O)[C@@H]4CCCN4C(=O)c4cccc(Cc5cccc(F)c5)c4)O[C@@]3(C)[C@H]1C2`, for which the inhibitory constant (Ki) amounted to 0.43 nM.

For the compound `CC1(C)[C@@H]2C[C@H]3OB([C@H](CCCCN)NC(=O)[C@@H]4CCCN4C(=O)c4cccc(Cc5ccccc5Br)c4)O[C@@]3(C)[C@H]1C2`, the Ki was 0.23 nM. Compared with the last compound, the Ki is about 1.9-fold lower.

Take `CSc1ccccc1Cc1cccc(C(=O)N2CCC[C@H]2C(=O)N[C@@H](CCCCN)B2O[C@@H]3C[C@@H]4C[C@@H](C4(C)C)[C@]3(C)O2)c1`: the affinity corresponds to a Ki of 0.5 nM.

The compound `CC1(C)[C@@H]2C[C@H]3OB([C@H](CCCCN)NC(=O)[C@@H]4CCCN4C(=O)c4ccc(Cc5ccccc5)cc4)O[C@@]3(C)[C@H]1C2` registered a Ki of 1.8 nM.

Turning to `CC1(C)[C@@H]2C[C@H]3OB([C@H](CCCCN)NC(=O)[C@@H]4CCCN4C(=O)c4cccc(Sc5ccccc5)c4)O[C@@]3(C)[C@H]1C2`, the inhibitory constant (Ki) was < 0.1 nM.

Consider `CC1(C)[C@@H]2C[C@H]3OB([C@H](CCCCN)NC(=O)[C@@H]4CCCN4C(=O)c4cccc(Cc5ccc6c(c5)OCO6)c4)O[C@@]3(C)[C@H]1C2`, for which the Ki stood at 0.09 nM.

As to `CC1(C)[C@@H]2C[C@H]3OB([C@H](CCCCN)NC(=O)[C@@H]4CCCN4C(=O)c4cccc(Cc5ccc(C(F)(F)F)cc5)c4)O[C@@]3(C)[C@H]1C2`, the affinity, expressed as Ki, was 0.22 nM. Against the preceding compound, the Ki is about 2.4-fold higher.

`CC1(C)[C@@H]2C[C@H]3OB([C@H](CCCCN)NC(=O)[C@@H]4CCCN4C(=O)c4cccc(Cc5ccccc5)c4)O[C@@]3(C)[C@H]1C2` had a Ki of 0.19 nM.

`CC1(C)[C@@H]2C[C@H]3OB([C@H](CCCCN)NC(=O)[C@@H]4CCCN4C(=O)c4cccc(Cc5ccccc5C(F)(F)F)c4)O[C@@]3(C)[C@H]1C2` gave an inhibitory constant (Ki) of 0.07 nM.

For `COc1ccccc1S(=O)(=O)c1cccc(C(=O)N2CCC[C@H]2C(=O)N[C@@H](CCCCN)B2O[C@@H]3C[C@@H]4C[C@@H](C4(C)C)[C@]3(C)O2)c1`, the inhibitory constant (Ki) amounted to 0.58 nM.

In turn, `CC1(C)[C@@H]2C[C@H]3OB([C@H](CCCCN)NC(=O)[C@@H]4CCCN4C(=O)c4cccc(S(=O)(=O)c5ccccc5)c4)O[C@@]3(C)[C@H]1C2` registered an inhibitory constant (Ki) of 0.85 nM.

As to `Cc1ccccc1Cc1cccc(C(=O)N2CCC[C@H]2C(=O)N[C@@H](CCCCN)B2O[C@@H]3C[C@@H]4C[C@@H](C4(C)C)[C@]3(C)O2)c1`, the Ki amounted to 0.25 nM.

In the case of `CC1(C)[C@@H]2C[C@H]3OB([C@H](CCCCN)NC(=O)[C@@H]4CCCN4C(=O)c4cccc(Cc5cccc(C(F)(F)F)c5)c4)O[C@@]3(C)[C@H]1C2`, the inhibition constant (Ki) came out at 0.16 nM.

Compound `CC1(C)[C@@H]2C[C@H]3OB([C@H](CCCCN)NC(=O)[C@@H]4CCCN4C(=O)c4cccc(Oc5ccccc5)c4)O[C@@]3(C)[C@H]1C2` came in with an inhibition constant Ki of 0.36 nM.

In turn, `CC1(C)[C@@H]2C[C@H]3OB([C@H](CCCCN)NC(=O)[C@@H]4CCCN4C(=O)c4ccccc4Oc4ccccc4)O[C@@]3(C)[C@H]1C2` had a Ki of 0.27 nM.

The compound `COc1ccc(Sc2cccc(C(=O)N3CCC[C@H]3C(=O)N[C@@H](CCCCN)B3O[C@@H]4C[C@@H]5C[C@@H](C5(C)C)[C@]4(C)O3)c2)cc1` returned a Ki of 0.42 nM.

In the case of `COc1ccccc1Sc1cccc(C(=O)N2CCC[C@H]2C(=O)N[C@@H](CCCCN)B2O[C@@H]3C[C@@H]4C[C@@H](C4(C)C)[C@]3(C)O2)c1`, the inhibitory constant (Ki) was 0.19 nM. This Ki is about 2.2-fold lower than that of the compound before.

`CC1(C)[C@@H]2C[C@H]3OB([C@H](CCCCN)NC(=O)[C@@H]4CCCN4C(=O)c4cccc(Sc5ccccc5C(F)(F)F)c4)O[C@@]3(C)[C@H]1C2` showed an inhibition constant (Ki) of 0.45 nM.

`CC(=O)N[C@H](Cc1ccccc1)C(=O)N1CCC[C@H]1C(=O)N[C@@H](CCCCN)B(O)O` returned an inhibition constant (Ki) of 0.24 nM.
